Laboratory results as given in patent US20190328691A1, “ANTIBIOTIC THERAPY” (Boulos & Cooper Pharmaceuticals Pty Ltd, priority 2015, published 2019).
“And” between values parts separate entries of the source, which are not always exact repeats. Equal values may be shown once. Read-outs that look alike come from different tables or passages of the source.

Key:
[1] = test system: Staphylococcus aureus (ATCC 29213); experiment: Checkerboard combination / MIC assay with S. aureus ATCC 29213; type: cell-based; details: S. aureus ATCC 29213; for MIC: Staphylococcus aureus, read-out: MIC of antibiotic alone
Outline: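 CLSI broth microdilution checkerboard in CAMHB, final inoculum 5×10^5 CFU/mL, 2% DMSO. Ramizol or Chlopam (11-point 2-fold) crossed with commercial antibiotics (7-point), each starting at 4× MIC; synergy assessed by FIC index (sum of MIC-in-combination/MIC-alone ratios; ≤0.5 synergy, >4 antagonism).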

[2] = test system: Staphylococcus aureus (BAA-1717); experiment: Checkerboard combination / MIC assay with S. aureus BAA-1717 (MRSA); type: cell-based
Outline: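 CLSI broth microdilution checkerboard in CAMHB (5×10^5 CFU/mL, 2% DMSO final). Ramizol or Chlopam was tested in 11-point two-fold series against 7-point antibiotic titrations, starting at 4× MIC.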

Question: `CO/N=C(\C(=O)N[C@@H]1C(=O)N2C(C(=O)[O-])=C(C[N+]3(C)CCCC3)CS[C@H]12)c1csc(N)n1` [Cefepime] was tested. Which “FICI of combination with Chlopam” value ([1]; Chlopam 0.003906 μg/mL + labelled antibiotic at MIC of same cell) did it give?
Answer: The value was 1.0.

Question: What about the “MIC of antibiotic in combination with Chlopam” value (shortened to “MIC … with Chlopam”) ([1]; Chlopam 0.003906 μg/mL) of the same compound?
Answer: Its value is 4 µg/mL.

Question: What about the “FICI of combination with Chlopam” value ([1]; Chlopam 0.0078125 μg/mL + labelled antibiotic at MIC of same cell) of the same compound?
Answer: The value was 1.0.

Question: What about the “MIC … with Chlopam” value ([1]; Chlopam 0.0078125 μg/mL) of the same compound?
Answer: Its value is 4 µg/mL.

Question: What about the “FICI of combination with Chlopam” value ([1]; Chlopam 0.015625 μg/mL + labelled antibiotic at MIC of same cell) of the same compound?
Answer: Its value is 1.0.

Question: What about the “MIC … with Chlopam” value ([1]; Chlopam 0.015625 μg/mL) of the same compound?
Answer: The value was 4 µg/mL.

Question: What about the “FICI of combination with Chlopam” value ([1]; Chlopam 0.25 μg/mL + labelled antibiotic at MIC of same cell) of the same compound?
Answer: Its value is 1.0.

Question: What about the “MIC … with Chlopam” value ([1]; Chlopam 0.25 μg/mL) of the same compound?
Answer: Its value is 2 µg/mL.

Question: And the “FICI of combination with Chlopam” value ([1]; Chlopam 0.5 μg/mL + labelled antibiotic at MIC of same cell)?
Answer: Its value is 1.0.

Question: And the “MIC … with Chlopam” value ([1]; Chlopam 0.5 μg/mL)?
Answer: The value was 0.125 µg/mL.

Question: What about the “FICI of combination with Ramizol” value ([1]; Ramizol 0.015625 μg/mL + labelled antibiotic at MIC of same cell) of the same compound?
Answer: Its value is 1.0.

Question: And the “MIC of antibiotic in combination with Ramizol” value (from here on “MIC … with Ramizol”) ([1]; Ramizol 0.015625 μg/mL)?
Answer: The value was 4 µg/mL.

Question: What about the “FICI of combination with Ramizol” value ([1]; Ramizol 0.03125 μg/mL + labelled antibiotic at MIC of same cell) of the same compound?
Answer: The value was 1.0.

Question: And the “MIC … with Ramizol” value ([1]; Ramizol 0.03125 μg/mL)?
Answer: Its value is 4 µg/mL.

Question: And the “FICI of combination with Ramizol” value ([1]; Ramizol 0.0625 μg/mL + labelled antibiotic at MIC of same cell)?
Answer: Its value is 1.0.

Question: And the “MIC … with Ramizol” value ([1]; Ramizol 0.0625 μg/mL)?
Answer: The value was 4 µg/mL.

Question: And the “FICI of combination with Ramizol” value ([1]; Ramizol 0.125 μg/mL + labelled antibiotic at MIC of same cell)?
Answer: Its value is 1.0.

Question: And the “MIC … with Ramizol” value ([1]; Ramizol 0.125 μg/mL)?
Answer: The value was 4 µg/mL.

Question: What about the “FICI of combination with Ramizol” value ([1]; Ramizol 1 μg/mL + labelled antibiotic at MIC of same cell) of the same compound?
Answer: The value was 0.8.

Question: And the “MIC … with Ramizol” value ([1]; Ramizol 1 μg/mL)?
Answer: The value was 2 µg/mL.

Question: And the “FICI of combination with Ramizol” value ([1]; Ramizol 2 μg/mL + labelled antibiotic at MIC of same cell)?
Answer: Its value is 0.8.

Question: And the “MIC … with Ramizol” value ([1]; Ramizol 2 μg/mL)?
Answer: The value was 1 µg/mL.

Question: What about the “FICI of combination with Ramizol” value ([1]; Ramizol 4 μg/mL + labelled antibiotic at MIC of same cell) of the same compound?
Answer: Its value is 1.0.

Question: And the “MIC … with Ramizol” value ([1]; Ramizol 4 μg/mL)?
Answer: The value was 0.125 µg/mL.

Question: And the MIC ([1]; ATCC29213, Table 4, checkerboard series with Chlopam)?
Answer: Its MIC is 4 µg/mL.

Question: What about the MIC ([1]; ATCC29213, Table 7, checkerboard series with Ramizol) of the same compound?
Answer: Its MIC is 4 µg/mL.

Question: What about the “mean FICI of combination with Chlopam” value ([1]; labelled antibiotic + Chlopam, mean of all pairwise combinations) of the same compound?
Answer: Its value is 1.1.

Question: What about the “Effect of the combinations with Ramizol (by mean FICI)” value ([1]; labelled antibiotic + Ramizol) of the same compound?
Answer: Its value is “additive effect”.

Question: What about the “mean FICI of combination with Ramizol” value ([1]; labelled antibiotic + Ramizol, mean of all pairwise combinations) of the same compound?
Answer: The value was 1.0.

Question: And the “FICI of combination with Chlopam” value ([2]; Chlopam 0.001953 μg/mL + labelled antibiotic at MIC of same cell, S. aureus ATCC BAA-1717)?
Answer: The value was 1.0.

Question: What about the “MIC … with Chlopam” value ([2]; Chlopam 0.001953 μg/mL, S. aureus ATCC BAA-1717) of the same compound?
Answer: Its value is 256 µg/mL.

Question: And the “FICI of combination with Chlopam” value ([2]; Chlopam 0.003906 μg/mL + labelled antibiotic at MIC of same cell, S. aureus ATCC BAA-1717)?
Answer: Its value is 1.0.

Question: What about the “MIC … with Chlopam” value ([2]; Chlopam 0.003906 μg/mL, S. aureus ATCC BAA-1717) of the same compound?
Answer: The value was 256 µg/mL.

Question: What about the “FICI of combination with Chlopam” value ([2]; Chlopam 0.0078125 μg/mL + labelled antibiotic at MIC of same cell, S. aureus ATCC BAA-1717) of the same compound?
Answer: The value was 1.0.

Question: And the “MIC … with Chlopam” value ([2]; Chlopam 0.0078125 μg/mL, S. aureus ATCC BAA-1717)?
Answer: The value was 256 µg/mL.

Question: What about the “FICI of combination with Chlopam” value ([2]; Chlopam 0.015625 μg/mL + labelled antibiotic at MIC of same cell, S. aureus ATCC BAA-1717) of the same compound?
Answer: The value was 1.0.

Question: What about the “MIC … with Chlopam” value ([2]; Chlopam 0.015625 μg/mL, S. aureus ATCC BAA-1717) of the same compound?
Answer: Its value is 256 µg/mL.

Question: And the “FICI of combination with Chlopam” value ([2]; Chlopam 0.03125 μg/mL + labelled antibiotic at MIC of same cell, S. aureus ATCC BAA-1717)?
Answer: The value was 1.0.

Question: And the “MIC … with Chlopam” value ([2]; Chlopam 0.03125 μg/mL, S. aureus ATCC BAA-1717)?
Answer: The value was 256 µg/mL.

Question: And the “FICI of combination with Chlopam” value ([2]; Chlopam 0.125 μg/mL + labelled antibiotic at MIC of same cell, S. aureus ATCC BAA-1717)?
Answer: Its value is 0.6.

Question: What about the “MIC … with Chlopam” value ([2]; Chlopam 0.125 μg/mL, S. aureus ATCC BAA-1717) of the same compound?
Answer: Its value is 128 µg/mL.

Question: What about the “FICI of combination with Chlopam” value ([2]; Chlopam 0.5 μg/mL + labelled antibiotic at MIC of same line, S. aureus ATCC BAA-1717) of the same compound?
Answer: The value was 0.5.

Question: And the “MIC … with Chlopam” value ([2]; Chlopam 0.5 μg/mL, S. aureus ATCC BAA-1717)?
Answer: Its value is 8 µg/mL.

Question: What about the “Effect of individual antibiotic combinations of lower concentrations” value ([2]; Chlopam and Cefepime: 0.25 and 64, 0.25 and 32, 0.25 and 16, 0.50 and 8 μg/mL, S. aureus ATCC BAA-1717) of the same compound?
Answer: Its value is “synergistic effect”.

Question: What about the “FICI of combination with Ramizol” value ([2]; Ramizol 0.015625 μg/mL + labelled antibiotic at MIC of same cell, S. aureus ATCC BAA-1717) of the same compound?
Answer: The value was 1.0.

Question: What about the “MIC … with Ramizol” value ([2]; Ramizol 0.015625 μg/mL, S. aureus ATCC BAA-1717) of the same compound?
Answer: The value was 256 µg/mL.

Question: What about the “FICI of combination with Ramizol” value ([2]; Ramizol 0.03125 μg/mL + labelled antibiotic at MIC of same cell, S. aureus ATCC BAA-1717) of the same compound?
Answer: Its value is 1.0.

Question: And the “MIC … with Ramizol” value ([2]; Ramizol 0.03125 μg/mL, S. aureus ATCC BAA-1717)?
Answer: The value was 256 µg/mL.

Question: And the “FICI of combination with Ramizol” value ([2]; Ramizol 0.0625 μg/mL + labelled antibiotic at MIC of same cell, S. aureus ATCC BAA-1717)?
Answer: The value was 1.0.

Question: What about the “MIC … with Ramizol” value ([2]; Ramizol 0.0625 μg/mL, S. aureus ATCC BAA-1717) of the same compound?
Answer: The value was 256 µg/mL.

Question: And the “FICI of combination with Ramizol” value ([2]; Ramizol 0.125 μg/mL + labelled antibiotic at MIC of same line, S. aureus ATCC BAA-1717)?
Answer: Its value is 0.5.

Question: What about the “MIC … with Ramizol” value ([2]; Ramizol 0.125 μg/mL, S. aureus ATCC BAA-1717) of the same compound?
Answer: The value was 128 µg/mL.

Question: What about the “FICI of combination with Ramizol” value ([2]; Ramizol 0.25 μg/mL + labelled antibiotic at MIC of same cell, S. aureus ATCC BAA-1717) of the same compound?
Answer: The value was 0.6.

Question: What about the “MIC … with Ramizol” value ([2]; Ramizol 0.25 μg/mL, S. aureus ATCC BAA-1717) of the same compound?
Answer: The value was 128 µg/mL.

Question: And the “FICI of combination with Ramizol” value ([2]; Ramizol 0.5 μg/mL + labelled antibiotic at MIC of same cell, S. aureus ATCC BAA-1717)?
Answer: The value was 0.6.

Question: What about the “MIC … with Ramizol” value ([2]; Ramizol 0.5 μg/mL, S. aureus ATCC BAA-1717) of the same compound?
Answer: Its value is 128 µg/mL.

Question: What about the “FICI of combination with Ramizol” value ([2]; Ramizol 1 μg/mL + labelled antibiotic at MIC of same line, S. aureus ATCC BAA-1717) of the same compound?
Answer: The value was 0.5.

Question: What about the “MIC … with Ramizol” value ([2]; Ramizol 1 μg/mL, S. aureus ATCC BAA-1717) of the same compound?
Answer: Its value is 64 µg/mL.

Question: And the “FICI of combination with Ramizol” value ([2]; Ramizol 2 μg/mL + labelled antibiotic at MIC of same line, S. aureus ATCC BAA-1717)?
Answer: The value was 0.5 and 0.6.

Question: And the “Effect of individual antibiotic combinations of lower concentrations” value ([2]; Ramizol and Cefepime: 0.125 and 128, 1 and 64, 2 and 8 μg/mL, S. aureus ATCC BAA-1717)?
Answer: The value was “synergistic effect”.

Question: And the MIC ([2]; Staphylococcus aureus, ATCC BAA-1717 / BAA-1717, Table 4, checkerboard series with Chlopam, S. aureus ATCC BAA-1717, read-out: MIC of antibiotic alone)?
Answer: The MIC was 256 µg/mL.

Question: And the “MIC of antibiotic alone” value ([2]; Table 7, checkerboard series with Ramizol, S. aureus ATCC BAA-1717)?
Answer: The value was 256 µg/mL.

Question: And the “Effect of the combinations with Chlopam (by mean FICI)” value ([2]; labelled antibiotic + Chlopam, S. aureus BAA-1717)?
Answer: Its value is “additive effect”.

Question: And the “mean FICI of combination with Chlopam” value ([2]; labelled antibiotic + Chlopam, mean of all pairwise combinations, S. aureus ATCC BAA-1717)?
Answer: The value was 0.8.

Question: And the “Effect of the combinations with Ramizol (by mean FICI)” value ([2]; labelled antibiotic + Ramizol, S. aureus BAA-1717)?
Answer: Its value is “additive effect”.

Question: And the “mean FICI of combination with Ramizol” value ([2]; labelled antibiotic + Ramizol, mean of all pairwise combinations, S. aureus ATCC BAA-1717)?
Answer: The value was 0.696.
